The assay is described as follows: blockers of mitochondrial fusion, WT vs mutant – cell-based, chemical genetic, wild-type and mutant, confirmation (AID 1361). To be noted: Cell-based mitochondrial fusion phenotype, imaging.
[1] abbreviates: mutant cells, measured here: mutant cell line IC50.

SMILES strings stand for the structures. Activity calls are given as the source filed them. No rule for the calls is given here.

One may read the IC50 as the concentration that gives 50% inhibition. Consider `CCOC(=O)Cc1c(Sc2ccccc2)c2cc(C)ccc2n1C`, for which the IC50 by setting is: (WT cells) 12.3 µM; under setting [1], over 25 µM.

For the molecule `CCN(Cc1ccccc1)C(c1ccc(C(F)(F)F)cc1)c1nnnn1C(C)(C)C` (stereo unspecified), the IC50 reads like this: (WT cells) 8.69 µM; under setting [1], over 25 µM.

As for `COC(=O)c1ccc(/C=C(\C#N)c2nc3ccccc3s2)cc1`, the IC50 reads like this: (WT cells) > 25 µM (inactive); under setting [1], over 25 µM.

Consider `O=C(N1CCOCC1)N1CCN(C(c2ccccc2)c2ccccc2)CC1`, for which the IC50 is, setting by setting: (WT cells) > 25 µM (inactive); under setting [1], over 25 µM.

With `Clc1cccc(N=C2NN=C(c3ccc4c(c3)OCCO4)CS2)c1`, the IC50 reads like this: (WT cells) 15.9 µM; under setting [1], over 25 µM.

As to `N#CC1=C(N)NC(SCc2ccc(Br)cc2)=C(C#N)C12CCCCC2`, the IC50 was > 25 µM (inactive) (WT cells) and over 25 µM under setting [1].

Regarding `O=C(CSc1nnc2scc(-c3ccccc3)n12)Nc1ccc2c(c1)OCCO2`, the IC50 is > 25 µM (inactive) (WT cells) and over 25 µM under setting [1].

In the case of `Cc1cccc(NC(=S)NNC(=O)COc2ccc(Cl)cc2Cl)c1`, the IC50 reads like this: (WT cells) 10.9 µM; under setting [1], 21 µM.

Consider `Cc1ccc(CC2SC(=Nc3ccccc3)N(c3ccccc3)C2=O)cc1` (stereo unspecified), for which the IC50 (WT cells) was 18.7 µM and the IC50 under setting [1] was over 25 µM.

As for `COc1ccc(C(=NNc2ccccc2C(=O)O)c2ccc(OC)cc2)cc1`, the IC50 reads like this: (WT cells) 17.8 µM; under setting [1], over 25 µM.

Turning to `CN1/C(=C\C=Nc2ccc3ccccc3c2)C(C)(C)c2ccccc21`, the IC50 is, setting by setting: (WT cells) > 25 µM (inactive); under setting [1], 21.8 µM.

For `CC1(C)CC(=O)C(C=NCc2cccnc2)=C(O)C1`, the IC50 (WT cells) was > 25 µM (inactive) and the IC50 under setting [1] is over 25 µM.

`O=c1[nH][nH]c(-c2ccccc2)c1C=Nc1ccccc1`: the IC50 (WT cells) was > 25 µM (inactive) and the IC50 under setting [1] is over 25 µM.

In the case of `COc1cccc(C2CN(c3ccc(F)cc3F)N=C2c2cccs2)c1OC` (stereo unspecified), the IC50 (WT cells) was 10 µM and the IC50 under setting [1] was over 25 µM.

On to `COc1ccc(C2C3=C(CC(C)(C)CC3=O)Oc3ncn(Cc4ccccc4)c(=N)c32)cc1` (stereo unspecified), for which the IC50 is, setting by setting: (WT cells) 12.6 µM; under setting [1], over 25 µM.

On to `COc1ccc(-c2nnc(SCC(=O)c3cccs3)o2)c(OC)c1`, for which the IC50 reads like this: (WT cells) > 25 µM (inactive); under setting [1], over 25 µM.

As to `Cc1ccc(-n2cc(C(=O)c3ccc(F)cc3)nn2)cc1Cl`, the IC50 (WT cells) was > 25 µM (inactive) and the IC50 under setting [1] is over 25 µM.

Turning to `C=CCOc1c(Br)cc(/C=N/Nc2ccc(C(=O)O)cc2)cc1OCC`, the IC50 (WT cells) was 22.1 µM and the IC50 under setting [1] was over 25 µM.

For `O=C(c1ccccc1)c1nnc(-c2ccncc2)o1`, the IC50 was > 25 µM (inactive) (WT cells) and over 25 µM under setting [1].

In the case of `O=C(CSc1ncn[nH]1)NCc1ccccc1`, the IC50 is, setting by setting: (WT cells) > 25 µM (inactive); under setting [1], over 25 µM.

For the molecule `COCCCNC(=O)CS(=O)(=O)Cc1nc(-c2cccc(OC)c2)oc1C`, the IC50 runs as follows: (WT cells) > 25 µM (inactive); under setting [1], over 25 µM.

For `Cc1cc2ncn(/N=C/c3cccnc3)c2cc1C`, the IC50 is > 25 µM (inactive) (WT cells) and over 25 µM under setting [1].

Regarding `Cc1oc(-c2ccccc2Cl)nc1CN1C(=O)CN=C(c2ccccc2)c2ccccc21`, the IC50 is, setting by setting: (WT cells) 20.5 µM; under setting [1], over 25 µM.

As for `O=C(c1cnc(-c2ccc(Cl)cc2)s1)c1ccc(Cl)cc1Cl`, the IC50 was 14.6 µM (WT cells) and over 25 µM under setting [1].

Take `O=C(COC(=O)c1cc(-c2cccc(Br)c2)nc2ccccc12)NCC1CCCO1` (stereo unspecified): the concentration for half-maximal inhibition (IC50) is 19.8 µM (WT cells) and over 25 µM under setting [1].

`O=S(=O)(Nc1ccc(O)c(Sc2nc3ccccc3s2)c1)c1cccc2ccccc12`: the IC50 (WT cells) was 10.8 µM and the IC50 under setting [1] was over 25 µM.

Regarding `COc1ccc(CCn2nnnc2C(C(C)C)N2CCN(c3ncccn3)CC2)cc1OC` (stereo unspecified), the IC50 was > 25 µM (inactive) (WT cells) and over 25 µM under setting [1].

Take `COc1ccccc1Cn1c(/C=C/c2ccccc2)nc2ccccc21`: the IC50 by setting is: (WT cells) 9.02 µM (inactive); under setting [1], 8.43 µM.

On to `Cc1nc(N2CCCCC2)c2c(C)c(C(=O)Nc3cccc(C(F)(F)F)c3)sc2n1`, for which the IC50 was 9.62 µM (WT cells) and over 25 µM under setting [1].

Regarding `N=c1c(C(=O)NCc2ccco2)cc2c(=O)n3ccccc3nc2n1Cc1ccc(Cl)cc1`, the IC50 (WT cells) is > 25 µM (inactive) and the IC50 under setting [1] was over 25 µM.

`Cc1cc(N/N=C/c2ccc(O)c(C)c2O)nc(-c2ccccc2O)n1`: the IC50 is > 25 µM (inactive) (WT cells) and over 25 µM under setting [1].

`CCc1c(C)nc2[nH]nc(-c3ccccc3)n2c1=O`: the IC50 is > 25 µM (inactive) (WT cells) and over 25 µM under setting [1].

With `Cc1ccccc1/C(N)=N/OC(=O)N1c2ccccc2Sc2ccccc21`, the IC50 is 16.6 µM (WT cells) and 22 µM under setting [1].

Consider `CC1(C)C(=O)OC(c2cccn2-c2cccc([N+](=O)[O-])c2)C2(CCCCC2)C1=O` (stereo unspecified), for which the IC50 (WT cells) was 9.07 µM and the IC50 under setting [1] was found to be 11.1 µM.

Turning to `Cc1ccc(C(=O)/C=C/c2c(C)nn(-c3ccccc3)c2Cl)cc1`, the IC50 is 20.2 µM (WT cells) and over 25 µM under setting [1].

On to `Cc1ccc(SC(C)C(=O)Nc2ccccc2-c2ccccc2)cc1` (stereo unspecified), for which the IC50 was 19.8 µM (WT cells) and over 25 µM under setting [1].

`CCOC(=O)C1CCCN(C(=O)CS(=O)(=O)Cc2ccccc2)C1` (stereo unspecified): the IC50 reads like this: (WT cells) > 25 µM (inactive); under setting [1], over 25 µM.

Consider `Cc1ccc(-c2cc(C(F)F)n3ncc(C(=O)N4CCN5CCCC5C4)c3n2)cc1` (stereo unspecified), for which the IC50 is > 25 µM (inactive) (WT cells) and over 25 µM under setting [1].

Regarding `Cc1cccc2sc(NC(=O)c3ccc(NS(=O)(=O)c4cccs4)cc3)nc12`, the IC50 is > 25 µM (inactive) (WT cells) and over 25 µM under setting [1].

For `CC1CCN(C(C)C(=O)Nc2ccccc2-c2ccccc2)CC1` (stereo unspecified), the IC50 (WT cells) was > 25 µM (inactive) and the IC50 under setting [1] is over 25 µM.

Take `O=C(Nc1ccccc1N1CCOCC1)c1cccc(F)c1`: the IC50 is 9.3 µM (WT cells) and 21.6 µM under setting [1].

As to `COCCn1c(CN2CCC(Cc3ccccc3)CC2)nc2c1c(=O)n(C)c(=O)n2C`, the IC50 (WT cells) is > 25 µM (inactive) and the IC50 under setting [1] is over 25 µM.

In the case of `Cc1cc(-c2ccccc2)nc2cc(C(=O)N(Cc3ccccc3)Cc3ccccc3)nn12`, the IC50 is 8.35 µM (WT cells) and over 25 µM under setting [1].

In the case of `Clc1ccc2ncc(-c3nnnn3-c3ccccc3)c(-c3ccccc3)c2c1`, the IC50 runs as follows: (WT cells) 15.7 µM; under setting [1], over 25 µM.

As for `COc1cc(NC(=S)NCCC(c2ccccc2)c2ccccc2)cc(OC)c1`, the IC50 was 4.78 µM (WT cells) and over 25 µM under setting [1].

Take `CC1=CC(C)(C)N(C(=O)c2ccc(F)cc2)c2cc3c(cc21)OCO3`: the IC50 is > 25 µM (inactive) (WT cells) and over 12.5 µM under setting [1].

Take `CCOc1ccc(NC(=S)N(CCc2c(C)[nH]c3ccc(C)cc23)Cc2ccco2)cc1`: the IC50 (WT cells) was 6.2 µM and the IC50 under setting [1] is over 25 µM.

For `CCCCNC(=O)C1=C(N)C(C(=O)Nc2ccc(C)c(S(=O)(=O)N3CCCCC3)c2)SC1=Nc1ccc(C)cc1C` (stereo unspecified), the IC50 by setting is: (WT cells) > 25 µM (inactive); under setting [1], over 25 µM.

As for `CC(=O)N(Cc1ccc(F)cc1)C1=C(NCCc2ccccc2)C(=O)c2ccccc2C1=O`, the IC50 reads like this: (WT cells) 24 µM; under setting [1], over 25 µM.

`CC(NC(=S)NCCCN1CCOCC1)C1CC2CCC1C2` (stereo unspecified): the IC50 reads like this: (WT cells) > 25 µM (inactive); under setting [1], over 25 µM.

As to `Cc1ccc(-n2cc(-c3ccccc3)c3c(N4CCOCC4)ncnc32)cc1`, the IC50 by setting is: (WT cells) 21 µM; under setting [1], over 25 µM.

Turning to `O=C(COC(=O)Cc1c(Cl)cccc1Cl)Nc1ccccc1-c1ccccc1`, the IC50 (WT cells) was 13.3 µM and the IC50 under setting [1] was over 25 µM.

Take `CC(C)(C)CC(C)(C)NC(=O)Nc1cccc([N+](=O)[O-])c1`: the IC50 by setting is: (WT cells) > 25 µM (inactive); under setting [1], over 25 µM.

On to `Cc1cc(Cl)ccc1NC(=S)NCCC(c1ccccc1)c1ccccc1`, for which the IC50 reads like this: (WT cells) 4.91 µM; under setting [1], over 25 µM.

Consider `Cc1ccc(NC(=O)C2SC(=Nc3ccccc3)C(C(=O)Nc3ccc(Cl)cc3)=C2N)cc1` (stereo unspecified), for which the IC50 is > 25 µM (inactive) (WT cells) and over 25 µM under setting [1].

Regarding `COc1ccc(Br)cc1CN(C)CC(=O)Nc1cc(Cl)cc(Cl)c1`, the IC50 by setting is: (WT cells) 9.17 µM; under setting [1], 22.1 µM.

In the case of `CCn1cc(C(=O)OCC(=O)c2cc(C)n(-c3cccc(C(F)(F)F)c3)c2C)c(=O)c2ccc(C)nc21`, the half-maximal inhibitory concentration (IC50) is 11.1 µM (WT cells) and over 25 µM under setting [1].

For the molecule `Cc1cc(C)nc(N2CCC(C(=O)NCCc3ccc(F)cc3)CC2)n1`, the IC50 is > 25 µM (inactive) (WT cells) and over 25 µM under setting [1].

For `Cc1oc(-c2ccccc2)[n+]([O-])c1C`, the IC50 by setting is: (WT cells) > 25 µM (inactive); under setting [1], over 25 µM.

As to `O=C(CCc1nc(-c2ccccc2)no1)NCCc1ccccc1`, the IC50 reads like this: (WT cells) > 25 µM (inactive); under setting [1], over 25 µM.

`CC1CC(C)(C)N2C(=O)C3(Nc4ccccc4S3)c3cccc1c32` (stereo unspecified): the IC50 runs as follows: (WT cells) > 25 µM (inactive); under setting [1], over 25 µM.

As to `O=C1Nc2ccc(Cl)cc2C12Nc1ccccc1-c1nnc(SCc3ccccc3F)nc1O2` (stereo unspecified), the IC50 is > 25 µM (inactive) (WT cells) and over 25 µM under setting [1].

As for `CCOc1ccc(-c2nc(N)ncc2Oc2ccccc2Br)c(O)c1`, the IC50 runs as follows: (WT cells) > 25 µM (inactive); under setting [1], over 25 µM.

Consider `Cc1cc(Cl)ccc1OC(C)C(=O)Nc1ccccc1N1CCOCC1` (stereo unspecified), for which the half-maximal inhibitory concentration (IC50) was 21.1 µM (WT cells) and over 25 µM under setting [1].

`COc1ccc(S(=O)(=O)N2c3ccccc3OCC2C(C)(C)C)cc1` (stereo unspecified): the IC50 was 18.5 µM (WT cells) and over 25 µM under setting [1].

Consider `Nc1ccc2nn(-c3ccccc3)nc2c1`, for which the IC50 reads like this: (WT cells) > 25 µM (inactive); under setting [1], over 25 µM.

Turning to `Cc1ccc(S(=O)(=O)c2c(C)nn(C(C)(C)C)c2OC(=O)CC(C)C)cc1`, the IC50 by setting is: (WT cells) 22.5 µM; under setting [1], over 25 µM.

For the molecule `CCOC(=O)/C(=C/c1ccc(N2CCC(c3ccccc3)=N2)cc1)C(C)=O`, the IC50 runs as follows: (WT cells) > 25 µM (inactive); under setting [1], over 25 µM.

These data come from PubChem BioAssay AID1361 (SRMLSC, 2008).
